Experiment [1] relates to human cervical tumor cell line HeLa (ATCC CCL-2). Kind of experiment: SAC-Formation - Paclitaxel-Induced Assay. To be noted: Homo sapiens, HeLa, 24 h, HeLa cells, paclitaxel 0.05 μM, test range 0.005 μM-20 μM, read-out: IC50 [mol/l] SAC-Formation - Paclitaxel-Induced Assay. The format is cell-based. The essentials:
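HeLa cells incubated overnight at 37° C, then given paclitaxel (0.05 μM final) plus test compound (0.005–20 μM, 0.5% DMSO) together for 24 h at 37° C. Fixed cells stained for phospho-histone H3 Ser10 (mitotic cells) and Hoechst 33342 (cell count); imaging-derived mitotic index fitted by four-parameter Hill equation.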

Experiment [2] addresses T1, CDK2/CycE (Homo sapiens, UniProt P24941).
T1 construct: GST; purchased ProQinase GmbH (Freiburg, Germany); host or cells: insect cells (Sf9)
Kind of experiment: CDK2/CycE kinase assay (TR-FRET). The settings on record: avg, read-out: CDK2 avg (IC50 [mol/l]). The format is biochemical. The essentials: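 GST-tagged human CDK2 and CycE from Sf9 cells, preincubated 15 min with compound, then 25 min at 22° C. with 10 μM ATP and 0.75 μM biotinylated Rb-derived peptide (final). Phospho-substrate read by TR-FRET (anti-pRB pSer807/pSer811, Eu anti-mouse IgG, streptavidin-XL665), 665/620 nm ratio, normalised to no-inhibitor and no-enzyme controls.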
(In TR-FRET formats the signal depends on donor and acceptor labels being close together.)

Where “and” joins values, the source holds several entries; their conditions need not be identical. Identical values can stand only once.

As for `Cc1nsc(Nc2cnc3ccccc3n2)c1C(=O)Nc1ccc(Nc2ccc(F)c(F)c2)nc1` [Example 245, N-{6-[(3,4-difluorophenyl)amino]pyridin-3-yl}-3-methyl-5-(quinoxalin-2-ylamino)-1,2-thiazole-4-carboxamide], the IC50 is 1700 nM in experiment [1] and 12 µM in experiment [2].
The matching figures for `Cc1nsc(Nc2cncc(C(F)(F)F)n2)c1C(=O)Nc1ccc(OC2CCN(CCF)CC2)nc1` [Example 14, N-(6-{[1-(2-Fluoroethyl)piperidin-4-yl]oxy}pyridin-3-yl)-3-methyl-5-{[6-(trifluoro-methyl)pyrazin-2-yl]amino}-1,2-thiazole-4-carboxamide]: 630 nM and 13 µM.
As for `Cc1nsc(Nc2cnc3ccccc3n2)c1C(=O)Nc1ccc(F)c(C(N)=O)c1` [Example 202, N-(3-carbamoyl-4-fluorophenyl)-3-methyl-5-(quinoxalin-2-ylamino)-1,2-thiazole-4-carboxamide], the results for the IC50 in experiment [1] and in experiment [2] were 130 nM and over 20 µM, respectively.
The matching figures for `Cc1nsc(Nc2cnc(C(F)(F)F)cn2)c1C(=O)Nc1ccc(OCCN)nc1` [Example 197, N-[6-(2-aminoethoxy)pyridin-3-yl]-3-methyl-5-{[5-(trifluoromethyl)pyrazin-2-yl]amino}-1,2-thiazole-4-carboxamide]: 600 nM and over 20 µM.
With `Cc1nsc(Nc2cnc3ccccc3n2)c1C(=O)Nc1ccc(OC2CCN(C(=O)OC(C)(C)C)CC2)nc1` [Example 18, tert-Butyl 4-{[5-({[3-methyl-5-(quinoxalin-2-ylamino)-1,2-thiazol-4-yl]carbonyl}-amino)pyridin-2-yl]oxy}piperidine-1-carboxylate], the IC50 in experiment [1] was 59 nM; in experiment [2] it was at least 20 µM.
Regarding `Cc1nsc(Nc2cncc(C(F)(F)F)n2)c1C(=O)Nc1cccc(S(C)(=O)=O)c1` [Example 194, 3-methyl-N-[3-(methylsulfonyl)phenyl]-5-{[6-(trifluoromethyl)pyrazin-2-yl]amino}-1,2-thiazole-4-carboxamide], the IC50 in experiment [1] is 290 nM; in experiment [2], > 20 µM and 7.8 µM.
With `Cc1nsc(Nc2cc(C#N)ccn2)c1C(=O)Nc1ccc(NC(=O)OC(C)(C)C)cc1` [Example 177, tert-butyl {4-[({5-[(4-cyanopyridin-2-yl)amino]-3-methyl-1,2-thiazol-4-yl}carbonyl)amino]phenyl}carbamate], the IC50 is 11000 nM in experiment [1] and over 20 µM in experiment [2].
The matching figures for `Cc1nsc(Nc2cnc(C(F)(F)F)cn2)c1C(=O)Nc1cccc(S(C)(=O)=O)c1` [Example 195, 3-methyl-N-[3-(methylsulfonyl)phenyl]-5-{[5-(trifluoromethyl)pyrazin-2-yl]amino}-1,2-thiazole-4-carboxamide]: 520 nM and over 20 µM.
The matching figures for `Cc1nsc(Nc2cnc3ccccc3n2)c1C(=O)Nc1cccc(NC(=O)OC(C)(C)C)c1` [Example 178, tert-butyl [3-({[3-methyl-5-(quinoxalin-2-ylamino)-1,2-thiazol-4-yl]carbonyl}amino)-phenyl]carbamate]: 260 nM and over 20 µM.
The matching figures for `Cc1nsc(Nc2cncc(C(F)(F)F)n2)c1C(=O)Nc1ccc(OCCNC(=O)OC(C)(C)C)c(F)c1` [Example 216, tert-butyl [2-(2-fluoro-4-{[(3-methyl-5-{[6-(trifluoromethyl)pyrazin-2-yl]amino}-1,2-thiazol-4-yl)carbonyl]amino}phenoxy)ethyl]carbamate]: 140 nM and over 20 µM.
Consider `Cc1nsc(Nc2cncc(C(F)(F)F)n2)c1C(=O)Nc1ccc(OC2CCNCC2)nc1` [Example 13, 3-Methyl-N-[6-(piperidin-4-yloxy)pyridin-3-yl]-5-{[6-(trifluoromethyl)pyrazin-2-yl]-amino}-1,2-thiazole-4-carboxamide], for which the IC50 was 13000 nM in experiment [1] and at least 20 µM in experiment [2].
The matching figures for `Cc1nsc(Nc2ccc(C#N)cn2)c1C(=O)Nc1cccc(NC(=O)OC(C)(C)C)c1` [Example 179, tert-butyl {3-[({5-[(5-cyanopyridin-2-yl)amino]-3-methyl-1,2-thiazol-4-yl}carbonyl)amino]phenyl}carbamate]: 2200 nM and over 20 µM.
Take `Cc1nsc(Nc2ccc(C#N)cn2)c1C(=O)Nc1ccc(S(C)(=O)=O)cc1` [Example 246, 5-[(5-cyanopyridin-2-yl)amino]-3-methyl-N-[4-(methylsulfonyl)phenyl]-1,2-thiazole-4-carboxamide]: the IC50 in experiment [1] was 77 nM; in experiment [2], over 20 µM.
The matching figures for `Cc1nsc(Nc2cnc(C(F)(F)F)cn2)c1C(=O)Nc1ccc(OCC2CCCN(C(=O)OC(C)(C)C)C2)nc1` (stereo not shown) [Example 228, tert-butyl 3-{[(5-{[(3-methyl-5-{[5-(trifluoromethyl)pyrazin-2-yl]amino}-1,2-thiazol-4-yl)carbonyl]amino}pyridin-2-yl)oxy]methyl}piperidine-1-carboxylate]: 48 nM and over 20 µM.
The matching figures for `Cc1nsc(Nc2cnc(C(F)(F)F)cn2)c1C(=O)Nc1ccc(OC2CCN(C(=O)OC(C)(C)C)CC2)c(F)c1` [Example 217, tert-butyl 4-(2-fluoro-4-{[(3-methyl-5-{[5-(trifluoromethyl)pyrazin-2-yl]amino}-1,2-thiazol-4-yl)carbonyl]amino}phenoxy)piperidine-1-carboxylate]: 410 nM and over 20 µM.
The matching figures for `COC(=O)c1cc(NC(=O)c2c(C)nsc2Nc2cnc3ccccc3n2)cc(C(=O)OC)c1` [Example 237, dimethyl 5-({[3-methyl-5-(quinoxalin-2-ylamino)-1,2-thiazol-4-yl]carbonyl}amino)isophthalate]: 20000 nM and over 20 µM.
On to `Cc1nsc(Nc2cc(C#N)ccn2)c1C(=O)Nc1ccc(Oc2cccc(C(F)(F)F)c2)nc1` [Example 230, 5-[(4-cyanopyridin-2-yl)amino]-3-methyl-N-{6-[3-(trifluoromethyl)phenoxy]pyridin-3-yl}-1,2-thiazole-4-carboxamide], for which the IC50 in experiment [1] was 82 nM; in experiment [2] it was over 20 µM.
The matching figures for `Cc1nsc(Nc2cc(C#N)ccn2)c1C(=O)Nc1cccc(C(=O)NC2CC2)c1` [Example 175, 5-[(4-cyanopyridin-2-yl)amino]-N-[3-(cyclopropylcarbamoyl)phenyl]-3-methyl-1,2-thiazole-4-carboxamide]: 2600 nM and over 20 µM.
The matching figures for `Cc1cc(C)n(-c2ccccc2NC(=O)c2c(C)nsc2Nc2cnc3ccccc3n2)n1` [Example 243, N-[2-(3,5-dimethyl-1H-pyrazol-1-yl)phenyl]-3-methyl-5-(quinoxalin-2-ylamino)-1,2-thiazole-4-carboxamide]: 6500 nM and over 20 µM.
The matching figures for `Cc1nsc(Nc2ccc(C#N)cn2)c1C(=O)Nc1ccc(F)c(C(N)=O)c1` [Example 203, N-(3-carbamoyl-4-fluorophenyl)-5-[(5-cyanopyridin-2-yl)amino]-3-methyl-1,2-thiazole-4-carboxamide]: 8500 nM and over 20 µM.
As for `CC(=O)Nc1cc(NC(=O)c2c(C)nsc2Nc2cnc(C(F)(F)F)cn2)ccc1F` [Example 206, N-(3-acetamido-4-fluorophenyl)-3-methyl-5-{[5-(trifluoromethyl)pyrazin-2-yl]amino}-1,2-thiazole-4-carboxamide], the figures for the IC50 in experiment [1] and in experiment [2] were 75 nM and over 20 µM, respectively.
The matching figures for `Cc1nsc(Nc2cncc(C(F)(F)F)n2)c1C(=O)Nc1ccc(OC2CCN(CC(F)(F)F)CC2)nc1` [Example 16, 3-Methyl-N-(6-{[1-(2,2,2-trifluoroethyl)piperidin-4-yl]oxy}pyridin-3-yl)-5-{[6-(trifluoromethyl)pyrazin-2-yl]amino}-1,2-thiazole-4-carboxamide]: 420 nM and at least 20 µM.
The matching figures for `Cc1nsc(Nc2cncc(C(F)(F)F)n2)c1C(=O)Nc1ccc(C(=O)NC2CCN(CC(F)F)CC2)cc1` [Example 225, N-N-(4-{[1-(2,2-difluoroethyl)piperidin-4-yl]carbamoyl}phenyl)-3-methyl-5-{[6-(trifluoromethyl)pyrazin-2-yl]amino}-1,2-thiazole-4-carboxamide]: 570 nM and over 20 µM.
Take `Cc1nsc(Nc2cncc(C(F)(F)F)n2)c1C(=O)Nc1ccc(OCCCN)nc1` [Example 209, N-[6-(3-aminopropoxy)pyridin-3-yl]-3-methyl-5-{[6-(trifluoromethyl)pyrazin-2-yl]amino}-1,2-thiazole-4-carboxamide]: the figures for the IC50 in experiment [1] and in experiment [2] were 2300 nM and over 20 µM, respectively.
`Cc1nsc(Nc2cnc(C(F)(F)F)cn2)c1C(=O)Nc1ccc(OCCNC(=O)OC(C)(C)C)nc1` [Example 192, tert-butyl {2-[(5-{[(3-methyl-5-{[5-(trifluoromethyl)pyrazin-2-yl]amino}-1,2-thiazol-4-yl)carbonyl]amino}pyridin-2-yl)oxy]ethyl}carbamate]: the IC50 in experiment [1] was 180 nM; in experiment [2], over 20 µM.
With `CC(=O)N1CCC(Oc2ccc(NC(=O)c3c(C)nsc3Nc3cncc(C(F)(F)F)n3)cn2)CC1` [Example 17, N-{6-[(1-Acetylpiperidin-4-yl)oxy]pyridin-3-yl}-3-methyl-5-{[6-(trifluoromethyl)-pyrazin-2-yl]amino}-1,2-thiazole-4-carboxamide], the IC50 was 300 nM in experiment [1] and at least 20 µM in experiment [2].

For the origin of these results see patent US20170334899A1, “AMINO-SUBSTITUTED ISOTHIAZOLES” (Bayer Pharma Aktiengesellschaft, priority 2014, published 2017).
